Laboratory results as given in patent US20050014835A1, “Agents for Treating Diseases Caused by Nonsense Mutations” (priority 2001, published 2005).

Legend:
[1] = format: in vivo; details: highest dose 1.2×10^−3 mol/kg/day (100×)
Method: In order to measure changes in body weight due to drug administration, male mdx mice (seven weeks old, four for each dose) were injected daily with NM at 1.2×10^−5 mol/kg (1× the effective dose), 1.2×10^−4 mol/kg (10×), 6.0×10^−4 mol/kg (50×), or 1.2×10^−3 mol/kg (100×) for 14 days. The body weight of each mouse was measured everyday. Other mdx mice (seven weeks old, two for each dose) were injected with GM (1.2×10^−3 mol/kg [100×]) as a control test. Body weight was also measured every day.

dystrophin [2] = assay: Immunofluorescence staining of dystrophin in TA muscle of drug-treated mdx mice; format: in vivo
Method: (§1) Mdx mice were used as a dystrophy mouse model. NM was dissolved in PBS and Millipore-filtered just before injection, in order to avoid degradation during storage in solution. Mdx mice (male, seven week-old, six for each dose) were injected subcutaneously with an NM solution (137 mM NaCl, 2.68 mM KCl, 8.10 mM […], and 1.47 mM KH2PO4) prepared using PBS, at half the concentration (1.2×10^−5 mol/kg) of the solution in the GM experiment by Barton-Davis et al. (Barton-Davis, E. R., Cordiner, L. Shoturma, D. I., Leiland, S. E., Sweeney, H. L. (1999) Aminoglycoside antibiotics restore dystrophin function to skeletal muscles of mdx mice. J. Clin. Invest. 104, 375-381) every day for two weeks. Control mdx mice (n=6) and C57BL/10 (B10, n=6) mice were injected with PBS (0.1 ml) alone, every day for two weeks.
(§2) After injection, immunofluorescence and Evans Blue staining were performed to detect dystrophin. Immunofluoresce staining was carried out as follows using antibodies against the C-terminus of dystrophin. Animals were sacrificed using an overdose of ether gas. The tibialis anterior (TA) muscles were removed and frozen in melting isopentane for immunohistochemistry. Then, 7 μm transverse cryosections were prepared. […] After labeling with secondary antibodies, dystrophin was detected by fluorescence microscopy, based on fluorescence emission. […]

dystrophin [3] = assay: Immunofluorescence staining of dystrophin in cultured mdx-sk myotubes; format: cell-based, mdx mouse; details: 50 μg/ml, seven days
From the text: The SV40T immortalized mdx satellite cell line, mdx-sk, was newly established from the mdx mouse to test the dystrophin restoring level in cultured mdx skeletal muscle cells. The mdx-sk line was established by introducing a retroviral vector carrying a cDNA for the temperature-sensitive form of the Simian Virus 40 large T antigen (a kind gift from Dr. Drinkwater) to a primary culture of mdx myoblasts obtained from the mdx mice. The retrovirus was produced using the packaging cell line, Plat-E, as previously described (Morita, S., Kojima, T., Kitamura, T. (2000) Plat-E: an efficient andstable system for transient packaging of retroviruses. Gene Therapy 7, 1063-1066). The cell line was cultured and maintained in Dulbecco's Modified Eagle Medium (DMEM)-high glucose (4,500 mg/l) supplemented with 20% fetal calf serum at 32.5° C. in a CO2 incubator. To induce muscle differentiation, the culture medium was changed to a differentiation medium (10% horse serum in Eagle MEM) and the culture temperature was shifted to 39.5° C. […]
In order to examine whether NM can restore dystrophin expression in the mdx-sk cells established as described above, NM was added at a concentration of 50 μg/ml or 100 μg/ml to a differentiation medium of myotubes cultured for seven days, and then culture was continued for another seven days. […] The cells were then observed under a fluorescence microscope.

[4] = Ototoxicity assay: hearing threshold by auditory brain stem response; format: in vivo, Mdx mouse; details: 1.2×10^−4 mol/kg daily for seven days, measured one day after final injection
Method: One day after the final injection, the hearing threshold was measured based on auditory brain stem response, according to the method of Shapiro et al. (Shapiro, S. M., Moller, A. R., Shiu, G. K. Brain-stem auditory evoked potentials in rats with high-dose pentbarbital. (1984) Electroencephalogr. Clin. Neurophysiol. 58, 266-276).

dystrophin [5] = assay: Immunoprecipitation and immunoblotting of dystrophin in muscles of NM-treated mdx mice; format: in vivo
Method: The left hind leg muscle (600 mg), the diaphragm (100 mg), and the cardiac muscle (100 mg) were collected from NM-treated mdx mice, NM-untreated mdx mice, and B10 mice as described above. Each of the specimens was homogenized in 15 ml of a homogenizing solution (pH 7.2) (pyrophosphate mixture, 20 mM Na4P2O7, 20 mM NaH2PO4, and 1 mM MgCl2, pH 7.1) containing 10% sucrose and 0.5 mM EDTA. The homogenization was carried out with a Teflon homogenizer at maximal speed for one minute (Mitchell, R. D., Palade, P., and Fleicher, S. (1983) Purification of morphologically intact triad structures from skeletal muscle. J. Cell Biol. 96, 1008-1016; Yoshida, M., Suzuki, A., Shimizu, T., and Ozawa, E. (1992) Proteinase-sensitive sites on isolated rabbit dystrophin. J. Biochem. 112, 433-439). The homogenate was centrifuged in an RA rotor (KUBOTA) at 9,000 rpm for 15 minutes. […]
Immunoprecipitation was performed as described by Abe et al. (Abe, M., Saitoh, O., Nakata, H., Yoda, A., and Matsuda, R. (1996) Expression of neurofilament proteins in proliferating C2C12 mouse skeletalmuscle cells. Exp. Cell Res. 229, 48-59) using muscle protein sample preparations prepared from mdx mice and B10 mice as described above. […] After boiling, the supernatant was collected, and the protein concentration thereof was determined by microburette method. […]

TA muscle fibers = assay: Evans Blue Dye staining of degenerating muscle fibers in drug-treated mdx mice; format: in vivo; details: 1.2×10^−5 mol/kg/day subcutaneously for two weeks, FIG. 2
Method: as §1, §2

dystrophin [6] = assay: Immunoblotting of dystrophin in cultured mdx-sk myotubes; format: cell-based, mdx mouse; details: 100 μg/ml, seven days
From the text: The SV40T immortalized mdx satellite cell line, mdx-sk, was newly established from the mdx mouse to test the dystrophin restoring level in cultured mdx skeletal muscle cells. The mdx-sk line was established by introducing a retroviral vector carrying a cDNA for the temperature-sensitive form of the Simian Virus 40 large T antigen (a kind gift from Dr. Drinkwater) to a primary culture of mdx myoblasts obtained from the mdx mice. The retrovirus was produced using the packaging cell line, Plat-E, as previously described (Morita, S., Kojima, T., Kitamura, T. (2000) Plat-E: an efficient andstable system for transient packaging of retroviruses. Gene Therapy 7, 1063-1066). The cell line was cultured and maintained in Dulbecco's Modified Eagle Medium (DMEM)-high glucose (4,500 mg/l) supplemented with 20% fetal calf serum at 32.5° C. in a CO2 incubator. To induce muscle differentiation, the culture medium was changed to a differentiation medium (10% horse serum in Eagle MEM) and the culture temperature was shifted to 39.5° C.
After induction of differentiation, the cells were cultured, and NM (50 μg/ml (2.0×10^−4 mol/kg) or 100 μg/ml (4.0×10^−4 mol/kg) in a differentiation medium solution) was added to the culture. Then, the cells were allowed to differentiate by culturing in the medium without an antibiotic for seven days. […]

Gentamicin [GM, reference compound]
lethality [1]: killed all of the tested mice within four hours

CN(CC(=O)O)NC(=O)C[C@H](N)C[C@@H](O)CN [NM, negamycin]
percentage of dystrophin-positive TA muscle fibers (dystrophin [2]; 1.2×10^−5 mol/kg/day subcutaneously for two weeks, FIG. 2): higher than in GM-treated mdx mice | dystrophin-positive fibers by immunofluorescence staining (dystrophin [2]; TA muscle, 1.2×10^−5 mol/kg subcutaneously every day for two weeks): detected | dystrophin expression by immunofluorescence staining (dystrophin [3]): strong fluorescence signals were detected | hearing loss by auditory brain stem response [4]: not in NM-treated mice | dystrophin expression level restored, relative to normal B10 hind leg muscle (dystrophin [5]; hind leg muscle, immunoblotting, estimated): about 10% | dystrophin bands by immunoblotting (dystrophin [5]; hind leg muscles (FIG. 3(1) G, H, I), 1.2×10^−5 mol/kg/day for two weeks, intensity lower than positive control B10): dystrophin bands were detected | percentage of fibers with increased membrane permeability (EBD-positive fibers) (TA muscle fibers): lower in NM-treated mice than in GM-treated mice | lethality [1]: not lethally toxic | dystrophin (427 kDa) band by immunoblotting (dystrophin [6]): a clear band was detected at the position of 427 kDa
